Reference: patent US20050197350A1, “Novel quinoline, tetrahydroquinazoline, and pyrimidine derivatives and methods of treatment related to the use thereof” (TAISHO PHARMACEUTICAL CO., LTD., priority 2003, published 2005)

These molecules were tested on MCH receptors (assay: MCH receptor activity class (method not given)). Conditions: class by percent of control at 10^-7 M or IC50.

Row | Structure (SMILES) | class
1 | CN(C)c1ccnc(N[C@H]2CC[C@@H](NCc3c[nH]nc3-c3ccc(C(F)(F)F)cc3)CC2)n1 [compound 1218] | 3 (Class 3 The value of percent of control at 10^−7 M was more than 60% or the value of IC50 was more than 200 nM.)
2 | COc1cc(CN[C@H]2CC[C@@H](Nc3nccc(N(C)C)n3)CC2)cc(OC)c1OC [compound 1219, N4,N4-dimethyl-N2-{cis-4-[(3,4,5-trimethoxybenzyl)amino]cyclohexcyl}pyrimidine-2,4-diamine] | 3 (Class 3 The value of percent of control at 10^−7 M was more than 60% or the value of IC50 was more than 200 nM.)
3 | COc1cc(CN[C@H]2CC[C@@H](Nc3nccc(N(C)C)n3)CC2)cc(OC)c1 [compound 1221] | 3 (Class 3 The value of percent of control at 10^−7 M was more than 60% or the value of IC50 was more than 200 nM.)
4 | COc1cc(CN[C@H]2CC[C@@H](Nc3nccc(N(C)C)n3)CC2)cc(I)c1O [compound 1222] | 3 (Class 3 The value of percent of control at 10^−7 M was more than 60% or the value of IC50 was more than 200 nM.)
5 | Cc1cc(CN[C@H]2CC[C@@H](Nc3nccc(N(C)C)n3)CC2)cc(C)c1O [compound 1223] | 3 (Class 3 The value of percent of control at 10^−7 M was more than 60% or the value of IC50 was more than 200 nM.)
6 | COc1cccc(CN[C@H]2CC[C@@H](Nc3nccc(N(C)C)n3)CC2)c1 [compound 1224] | 3 (Class 3 The value of percent of control at 10^−7 M was more than 60% or the value of IC50 was more than 200 nM.)
7 | CN(C)c1ccnc(N[C@H]2CC[C@@H](NCc3ccc(F)c(Br)c3)CC2)n1 [compound 1225] | 3 (Class 3 The value of percent of control at 10^−7 M was more than 60% or the value of IC50 was more than 200 nM.)
8 | Cc1ccc2occ(CN[C@H]3CC[C@@H](Nc4nccc(N(C)C)n4)CC3)c(=O)c2c1 [compound 1227, 3-{[(cis-4-{[4-(dimethylamino)pyrimidin-2-yl]amino}-cylohexyl}-amino]methyl}-6-methyl-4H-chromen-4-one] | 3 (Class 3 The value of percent of control at 10^−7 M was more than 60% or the value of IC50 was more than 200 nM.)
9 | Cc1cc2occ(CN[C@H]3CC[C@@H](Nc4nccc(N(C)C)n4)CC3)c(=O)c2cc1Cl [compound 1228] | 3 (Class 3 The value of percent of control at 10^−7 M was more than 60% or the value of IC50 was more than 200 nM.)
10 | Cc1cc(C)c2occ(CN[C@H]3CC[C@@H](Nc4nccc(N(C)C)n4)CC3)c(=O)c2c1 [compound 1229] | 3 (Class 3 The value of percent of control at 10^−7 M was more than 60% or the value of IC50 was more than 200 nM.)
11 | Cc1cc(CN[C@H]2CC[C@@H](Nc3nccc(N(C)C)n3)CC2)c(C)n1-c1ccccc1 [compound 1230] | 3 (Class 3 The value of percent of control at 10^−7 M was more than 60% or the value of IC50 was more than 200 nM.)
12 | CCCCC/C(=C\c1ccccc1)CN[C@H]1CC[C@@H](Nc2nccc(N(C)C)n2)CC1 [compound 1232] | 3 (Class 3 The value of percent of control at 10^−7 M was more than 60% or the value of IC50 was more than 200 nM.)
13 | COc1ccccc1/C=C/CN[C@H]1CC[C@@H](Nc2nccc(N(C)C)n2)CC1 [compound 1233] | 3 (Class 3 The value of percent of control at 10^−7 M was more than 60% or the value of IC50 was more than 200 nM.)
14 | CN(C)c1ccnc(N[C@H]2CC[C@@H](NCc3coc4ccc(Cl)cc4c3=O)CC2)n1 [compound 1234] | 3 (Class 3 The value of percent of control at 10^−7 M was more than 60% or the value of IC50 was more than 200 nM.)
15 | CN(C)c1ccnc(N[C@H]2CC[C@@H](NCc3cncc(-c4ccc(F)cc4)c3)CC2)n1 [compound 1235] | 2 (Class 2: The value of percent of control at 10^−7 M was from 40% to 60% or the value of IC′50 was from 50 nM to 200 nM.)
16 | CCOC(=O)c1[nH]c2cc(Cl)cc(Cl)c2c1CN[C@H]1CC[C@@H](Nc2nccc(N(C)C)n2)CC1 [compound 1236] | 1 (Class 1: The value of percent of control at 10^−7 M was less than 40% or the value of IC50 was less than 50 nM.)
17 | COC(=O)c1ccccc1Sc1nc2sccn2c1CN[C@H]1CC[C@@H](Nc2nccc(N(C)C)n2)CC1 [compound 1237] | 3 (Class 3 The value of percent of control at 10^−7 M was more than 60% or the value of IC50 was more than 200 nM.)
18 | CN(C)c1ccnc(N[C@H]2CC[C@@H](NCc3c[nH]nc3-c3ccc(F)cc3)CC2)n1 [compound 1238] | 3 (Class 3 The value of percent of control at 10^−7 M was more than 60% or the value of IC50 was more than 200 nM.)
19 | CSc1ccc(CN[C@H]2CC[C@@H](Nc3nccc(N(C)C)n3)CC2)cc1 [compound 1239] | 3 (Class 3 The value of percent of control at 10^−7 M was more than 60% or the value of IC50 was more than 200 nM.)
20 | CN(C)c1ccnc(N[C@H]2CC[C@@H](NCc3cccc4ccccc34)CC2)n1 [compound 1240] | 3 (Class 3 The value of percent of control at 10^−7 M was more than 60% or the value of IC50 was more than 200 nM.)
21 | COc1cc(CN[C@H]2CC[C@@H](Nc3nccc(N(C)C)n3)CC2)ccc1O [compound 1241] | 3 (Class 3 The value of percent of control at 10^−7 M was more than 60% or the value of IC50 was more than 200 nM.)
22 | CN(C)c1ccnc(N[C@H]2CC[C@@H](NCc3ccc(F)c(Cl)c3)CC2)n1 [compound 1242] | 3 (Class 3 The value of percent of control at 10^−7 M was more than 60% or the value of IC50 was more than 200 nM.)

Row | Structure (SMILES) | class
23 | COc1cccc(OC)c1CNC[C@H]1CC[C@@H](Nc2nccc(N(C)C)n2)CC1 [compound 1243] | 2 (Class 2: The value of percent of control at 10^−7 M was from 40% to 60% or the value of IC′50 was from 50 nM to 200 nM.)
24 | CCOc1ccccc1CNC[C@H]1CC[C@@H](Nc2nccc(N(C)C)n2)CC1 [compound 1244] | 2 (Class 2: The value of percent of control at 10^−7 M was from 40% to 60% or the value of IC′50 was from 50 nM to 200 nM.)
25 | CN(C)c1ccnc(N[C@H]2CC[C@@H](CNCc3c[nH]c4ccccc34)CC2)n1 [compound 1245] | 3 (Class 3 The value of percent of control at 10^−7 M was more than 60% or the value of IC50 was more than 200 nM.)
26 | COc1ccc(OC)c(CNC[C@H]2CC[C@@H](Nc3nccc(N(C)C)n3)CC2)c1 [compound 1246] | 3 (Class 3 The value of percent of control at 10^−7 M was more than 60% or the value of IC50 was more than 200 nM.)
27 | COc1ccc(CNC[C@H]2CC[C@@H](Nc3nccc(N(C)C)n3)CC2)c2ccccc12 [compound 1247] | 1 (Class 1: The value of percent of control at 10^−7 M was less than 40% or the value of IC50 was less than 50 nM.)
28 | COc1ccc2[nH]cc(CNC[C@H]3CC[C@@H](Nc4nccc(N(C)C)n4)CC3)c2c1 [compound 1248] | 2 (Class 2: The value of percent of control at 10^−7 M was from 40% to 60% or the value of IC′50 was from 50 nM to 200 nM.)
29 | COc1ccc2ccccc2c1CNC[C@H]1CC[C@@H](Nc2nccc(N(C)C)n2)CC1 [compound 1249] | 1 (Class 1: The value of percent of control at 10^−7 M was less than 40% or the value of IC50 was less than 50 nM.)
30 | COc1cc(Br)cc(CNC[C@H]2CC[C@@H](Nc3nccc(N(C)C)n3)CC2)c1O [compound 1250] | 1 (Class 1: The value of percent of control at 10^−7 M was less than 40% or the value of IC50 was less than 50 nM.)
31 | CN(C)c1ccnc(N[C@H]2CC[C@@H](CNCc3c[nH]c4ccc(Br)cc34)CC2)n1 [compound 1251] | 1 (Class 1: The value of percent of control at 10^−7 M was less than 40% or the value of IC50 was less than 50 nM.)
32 | COc1ccc(CNC[C@H]2CC[C@@H](Nc3nccc(N(C)C)n3)CC2)c(OC)c1 [compound 1252] | 2 (Class 2: The value of percent of control at 10^−7 M was from 40% to 60% or the value of IC′50 was from 50 nM to 200 nM.)
33 | COc1ccc(CNC[C@H]2CC[C@@H](Nc3nccc(N(C)C)n3)CC2)c(OC)c1OC [compound 1253] | 1 (Class 1: The value of percent of control at 10^−7 M was less than 40% or the value of IC50 was less than 50 nM.)
34 | CCOc1cc(CNC[C@H]2CC[C@@H](Nc3nccc(N(C)C)n3)CC2)ccc1OC [compound 1255] | 1 (Class 1: The value of percent of control at 10^−7 M was less than 40% or the value of IC50 was less than 50 nM.)
35 | CN(C)c1ccnc(N[C@H]2CC[C@@H](CNCc3c[nH]nc3-c3ccc(C(F)(F)F)cc3)CC2)n1 [compound 1256] | 1 (Class 1: The value of percent of control at 10^−7 M was less than 40% or the value of IC50 was less than 50 nM.)
36 | COc1cc(CNC[C@H]2CC[C@@H](Nc3nccc(N(C)C)n3)CC2)cc(OC)c1OC [compound 1257] | 2 (Class 2: The value of percent of control at 10^−7 M was from 40% to 60% or the value of IC′50 was from 50 nM to 200 nM.)
37 | COc1cc(CNC[C@H]2CC[C@@H](Nc3nccc(N(C)C)n3)CC2)cc(OC)c1 [compound 1259] | 3 (Class 3 The value of percent of control at 10^−7 M was more than 60% or the value of IC50 was more than 200 nM.)
38 | COc1cc(CNC[C@H]2CC[C@@H](Nc3nccc(N(C)C)n3)CC2)cc(I)c1O [compound 1260] | 1 (Class 1: The value of percent of control at 10^−7 M was less than 40% or the value of IC50 was less than 50 nM.)
39 | Cc1cc(CNC[C@H]2CC[C@@H](Nc3nccc(N(C)C)n3)CC2)cc(C)c1O [compound 1261] | 1 (Class 1: The value of percent of control at 10^−7 M was less than 40% or the value of IC50 was less than 50 nM.)
40 | COc1ccc(CNC[C@H]2CC[C@@H](Nc3nccc(N(C)C)n3)CC2)cc1 [compound 1262] | 3 (Class 3 The value of percent of control at 10^−7 M was more than 60% or the value of IC50 was more than 200 nM.)
41 | CN(C)c1ccnc(N[C@H]2CC[C@@H](CNCc3ccc4c(c3)OCCO4)CC2)n1 [compound 1263] | 3 (Class 3 The value of percent of control at 10^−7 M was more than 60% or the value of IC50 was more than 200 nM.)
42 | CN(C)c1ccnc(N[C@H]2CC[C@@H](CNCc3cccc(Br)c3)CC2)n1 [compound 1264] | 3 (Class 3 The value of percent of control at 10^−7 M was more than 60% or the value of IC50 was more than 200 nM.)
43 | COc1cc(OC)c(CNC[C@H]2CC[C@@H](Nc3nccc(N(C)C)n3)CC2)cc1Br [compound 1265] | 1 (Class 1: The value of percent of control at 10^−7 M was less than 40% or the value of IC50 was less than 50 nM.)
